# From patent US20080064629A1, “Amphiregulin as a Protective Agent in Acute Hepatic Injury” (priority 2004, published 2008)
# Key:
# Format in all cases: cell-based
# rat hepatocytes = assay: DNA synthesis ([3H]thymidine incorporation) in cultured rat hepatocytes; settings: for effect on DNA synthesis stimulated by AR (in words): AR 100 nM with PD153035 1 μM, LY294002 20 μM, SB202190 25 μM, TGFβ 8 ng/ml; for reduction of the effects of AR on DNA synthesis: AR 100 nM, PD98059 10 μM, SP600125 20 μM
# Description: For DNA synthesis, rat hepatocytes were plated to a density of 3×10^4 cells/well in 96-well plates coated with collagen in MEM medium supplemented with 10% FCS. Five hours after plating, the medium was changed and cells were maintained in absence of serum for another 20 hours. DNA synthesis was assayed after 30 h of treatment with AR. A pulse of [^3H]thymidine was administered (1 μCi/well)(Amersham Biosciences, Piscataway, N.J., USA) 22 h after the addition of AR. Cells were harvested, and the incorporation of thymidine was determined with a scintillation counter. Evaluations were made of the effect of AR on DNA synthesis in the presence of MEK1 inhibitor, PD98059, PI-3K inhibitor, LY294002, p38 MAPK inhibitor, SB202190, JNK inhibitor, SP600125, and of the EGF-R tyrosine kinase activity inhibitor, PD153035—all supplied by Calbiochem.
# [1] = tested on: mouse hepatocytes in primary culture; assay: Apoptosis induced by actinomycin D and Jo2 antibody in mouse hepatocytes in primary culture; settings: AR 20 nM; PD153035 1 μM, PD98059 10 μM, LY-294002 20 μM; actinomycin D and Jo2
# Text: In order to determine whether the in vivo antiapoptotic effects of AR could be mediated by direct action of AR on liver parenchymal cells, the inventors used mouse hepatocytes in primary culture. It has been reported that hepatocytes exposed to Jo-2 antibodies undergo apoptosis effectively in presence of actinomycin D [(5), (6), (33) Ni, R., Tomita, Y., Matsuda, K., Ichiara, A., Ishimura, K., Ogasawara, J., Nagata, S. 1994. Fas-mediated apoptosis in primary cultured mouse hepatocytes. Exp. Cell Res. 215: 332-337]. Hepatocytes were pretreated with different concentrations of AR during […] before addition of actinomycin D and Jo2 antibody. Measurements of apoptosis and related molecular events, were made 18 h later. […] Likewise, they found antiapoptotic protein Bcl-xL to be induced by treatment with AR in mouse hepatocytes treated with Jo2 (FIG. 4B). In order to identify the AR antiapoptotic signaling mechanisms, PI-3K/Akt and ERK1/2 pathways were studied, as they are general mediators of cell survival [(4), (6)]. […] A key signaling molecule implicated in protection against liver damage induced by Fas is STAT3 [(34) Shen, Y., Devgan, G., Darnell, J. E., Bromberg, J. F. 2001. Constitutively activated Stat3 protects fibroblasts from serum withdrawal and UV-induced apoptosis and antagonizes the proapoptotic effects of activated Statl. Proc. Natl. Acad. Sci. USA. 98: 1543-1548. (35) Haga, S., Terui, K., Zhang, H. Q., Enosawa, S., Ogawa, W., Inoue, H., Okuyama, T., Takeda, K., Akira, S., Ogino, T., et al. 2003. Stat3 protects against Fas-induced liver injury by redox-dependent and -independent mechanisms. J. Clin. Invest. 112: 989-998].
# (§1) Hepatocytes were isolated from male Wistar rats (150 g) and C57/BL6 mice (20 g) by perfusion with collagenase (Gibco-BRL, Paisley, UK) as described elsewhere [(18), (20)]. Cells (5×10^5 cells per well) were plated onto 6-well plates coated with collagen (type I collagen, Collaborative Biomedical, Bedford, Mass., USA). Cultures were maintained in MEM medium supplemented with 10% fetal calf serum (FCS), non-essential amino acids, glutamine 2 mM and antibiotics (all supplied by Gibco-BRL). After 2 h of incubation, the medium was removed and cells were again cultured in the same medium with 5% FCS. Where applicable, hepatocytes were treated with IL-1β or TNFα from Roche (Mannheim, Germany), HGF or forskolin from Calbiochem (San Diego, Calif., USA), IL6 from RD Systems (Wiesbaden-Nordenstadt, Germany), or PGE2 from Alexis QBiogene (Carlsbad, Calif., USA).
# Apoptosis was induced in cultured mouse hepatocytes by treatment with 0.5 μg/ml of Jo2 antibody and 0.05 μg/ml of actinomycin D as described elsewhere (5). Where applicable, the hepatocytes were treated with AR 6 h before the addition of Jo2 antibody and actinomycin D. Apoptosis was estimated by determining soluble histone-DNA complexes using the Cell Death Detection Assay (Roche). ELISA tests for determining cell death were carried out following the manufacturer's instructions. The specific enrichment of mono- and oligonucleosomes released in the cytoplasm (enrichment factor, EF) was calculated as the ratio between the absorbance values of the samples corresponding to treated cells and control cells. […]
# Caspase-3 activity in mouse hepatocytes and liver tissue lysates was assessed using the Caspase-3/CPP32 colorimetric assay kit (BioVision, Palo Alto, Calif., USA). […]
# [2] = tested on: AR gene expression in rat hepatocytes; assay: AR gene expression in cultured rat hepatocytes (real time PCR); settings: IL-1β 2 ng/ml; PGE2 10 μM; forskolin, hydrogen peroxide, menadione data not shown
# Description: as §1
# Total RNA was extracted using TRI reagent (Sigma). […] of RNA were treated with DNase I (Gibco-BRL) before reverse transcription, for which M-MLV enzyme was used (Gibco-BRL) in the presence of RNase OUT (Gibco-BRL). For each PCR reaction 1/10 of each preparation of cDNA was used. PCR products were subjected to electrophoresis in 2% agarose gels, followed by staining with ethidium bromide and quantification using Molecular Analyst software (Bio-Rad, Hercules, Calif., USA). Data were normalized with respect to β-actin gene expression levels. […] All primers were designed to distinguish between the amplification of genomic DNA and cDNA, and all products were sequenced to confirm specificity. The primers used are described below in Table I: […]
# Real time PCR was performed using an iCycler (BioRad) and iQ SYBR Green Supermix (Bio-Rad). In order to monitor the specificity of final PCR products, the latter were analysed by fusion curves and electrophoresis. The amount of each transcript was expressed as n-fold the difference versus expression of the reference gene (β-actin)(2^ΔCt, where ΔCt represents the difference in threshold cycle between target genes and control gene).
Compound,effect on DNA synthesis stimulated by AR (in words) (rat hepatocytes),AR gene expression [2],also measured
"COc1cc2ncnc(Nc3cccc(Br)c3)c2cc1OC [PD153035, reference compound]",completely prevents,,effect of inhibitor on the protection against apoptosis afforded by AR [1]: protection afforded by AR was lost
CC1=CC(=O)c2ccccc2C1=O [menadione],,no effect,
"CCCCC[C@H](O)/C=C/[C@H]1[C@H](O)CC(=O)[C@@H]1C/C=C\CCCC(=O)O [PGE2, prostaglandin E2]",,rapid induction,
IL-1β: cytokine implicated in liver inflammatory and regenerative processes (Roche),,stimulate AR gene expression,
Oc1c2ccccc2c2c3c(cccc13)N=N2 [SP600125],,,reduction of the effects of AR on DNA synthesis (rat hepatocytes): 70%
Oc1ccc(-c2nc(-c3ccncc3)c(-c3ccc(F)cc3)[nH]2)cc1 [SB202190],no significant effect,,
"COc1cccc(-c2cc(=O)c3ccccc3o2)c1N [PD98059, reference compound]",,,reduction of the effects of AR on DNA synthesis (rat hepatocytes): 70%; effect of inhibitor on the protection against apoptosis afforded by AR [1]: did not interfere
OO [hydrogen peroxide],,no effect,
transforming growth factor β [TGFβ],abrogated,,
